Entries after “also recorded” stand apart in the source; their conditions may differ.

Common to all, as to assay type: in vivo, mouse
The test system of test [1] is enterocytes. Put plainly: FACS analysis of colon epithelial cells (enterocytes) after colitis induction. On the procedure: (§1) Colon segment was flushed with cold PBS, longitudinally cut open and rinsed to remove residual luminal contents. Tissue was cut into 3- to 5-mm pieces and incubated in HBSS medium containing EDTA 0.5 M and Hepes 10 mM at 37° C. for 20 minutes, shaken at 180 rpm, to separate epithelial fraction. Supernatant was centrifuged at 4° C. at 500 g for 10 minutes. Recovered tissue was digested in HBSS medium with 2% fetal bovine serum (FBS), 0.05% collagenase II and 0.05% DNase I (Sigma) for 40 minutes. at 37° C., shaken at 180 rpm. LP cells were filtered through 65 μm mesh and centrifuged at 4° C. at 500 g for 10 minutes. The present inventors prepared single cell suspensions from mouse colon by enzymatic digestion and analyzed by polychromatic flow cytometry. Samples were stained with conjugated antibodies or matching isotype controls according to manufacturer's instructions. Data were acquired on an LSRII (BD Biosciences) or FACSCalibur instrument (Becton-Dickinson) with CellQuest software, with a MacsQuant instrument (Miltenyi, Bergisch Gladbach, Germany), and analyzed using BD FACSDiva 6 or FlowJo software (version 7.6.5, or version vX.0.7 Tree Star Inc) or MacsQuant. Colon cells were stained for 30 min at 4° C. in flow cytometry buffer (PBS, 10% FCS and 0.02% azide). For antigens that require intracellular staining (As1, iNOS and S-nitrosocystein), cell surface staining was followed by cell fixation and permeabilization with the Cytofix/Cytoperm kit (BD Biosciences) according to the manufacturer's instructions. For staining, the present inventors used a lineage cocktail of antibodies anti-CD45-APC, Anti-CD64-PE, Anti-CD11c-PB, Anti-326-APC cy7, Anti CD31-PE cy7 (all from BioLegend). After staining for cell surface antigens, intracellular NO was detected by incubation of cells for 15 min at 37° C. with 10 μM DAF-FM diacetate followed by extensive washing, according to the manufacturer's instructions (Molecular Probes). Staining without addition of the DAF-FM probe was considered to be the baseline for gating the positive population. As1 was detected using anti-As1-ALEXA FLUOR® 488 (BD Biosciences), iNOS using anti-iNOS followed by anti-rat 488 (Jackson ImmunoResearch), and nitrosylation using anti-S-nitrosocystein (from abcam) followed by anti-mouse 488 (Jackson ImmunoResearch).

The subject of test [2] is CD45+ immune system cells. Briefly: FACS analysis of colon CD45+ immune system cells after colitis induction. The conditions noted are these: fisetin vs control after colitis induction, FIGS. 14A-C. On the procedure: Colon segment was flushed with cold PBS, longitudinally cut open and rinsed to remove residual luminal contents. Tissue was cut into 3- to 5-mm pieces and incubated in HBSS medium containing EDTA 0.5 M and Hepes 10 mM at 37° C. for 20 minutes, shaken at 180 rpm, to separate epithelial fraction. Supernatant was centrifuged at 4° C. at 500 g for 10 minutes. Recovered tissue was digested in HBSS medium with 2% fetal bovine serum (FBS), 0.05% collagenase II and 0.05% DNase I (Sigma) for 40 minutes. at 37° C., shaken at 180 rpm. LP cells were filtered through 65 μm mesh and centrifuged at 4° C. at 500 g for 10 minutes. The present inventors prepared single cell suspensions from mouse colon by enzymatic digestion and analyzed by polychromatic flow cytometry. […] Data were acquired on an LSRII (BD Biosciences) or FACSCalibur instrument (Becton-Dickinson) with CellQuest software, with a MacsQuant instrument (Miltenyi, Bergisch Gladbach, Germany), and analyzed using BD FACSDiva 6 or FlowJo software (version 7.6.5, or version vX.0.7 Tree Star Inc) or MacsQuant. […] After staining for cell surface antigens, intracellular NO was detected by incubation of cells for 15 min at 37° C. with 10 μM DAF-FM diacetate followed by extensive washing, according to the manufacturer's instructions (Molecular Probes). […]

Test [3] has as its system Ass1. Put plainly: Immunohistochemistry staining of distal colon sections for Ass1. Conditions: after colitis induction, fisetin treatment, FIG. 4A.
Test [4] relates to CD64+, CD11c+ macrophages. Put plainly: FACS analysis of colon CD64+, CD11c+ macrophages after colitis induction. Conditions: fisetin vs control, FIGS. 14D-F. How it is done:
as §1, with “For staining, the present inventors used a lineage cocktail of antibodies anti-CD45-APC, Anti-CD64-PE, Anti-CD11c-PB, Anti-326-APC cy7, Anti CD31-PE cy7 (all from BioLegend).” left out, “Staining without addition of the DAF-FM probe was considered to be the baseline for gating the positive population.” left out

With `O=c1c(O)c(-c2ccc(O)c(O)c2)oc2cc(O)ccc12` [fisetin, 3,7, 3′, 4′-tetrahydroxyflavone], the “NO levels in enterocytes (colon epithelial cells)” value in test [1] (after colitis induction, treated vs control, FIGS. 3F-J, 4F-I) is “increased; also recorded: significant increase”. Also, the “iNOS expression in enterocytes (colon cells)” value in test [1] (fisetin vs control after colitis induction, FIGS. 4J-K) is given as “increased; also recorded: significant increase”. Further, the “ASL levels in enterocytes” value in test [1] (fisetin, FIGS. 4H-L) is listed as “increase”. In addition, the As1 levels result in test [2] and in test [4] was “decrease” in each case. The iNOS levels result is given as “not in the intestinal immune cells; also recorded: decrease” in test [2] and “decrease” in test [4]. The “Ass1 expression in distal colon sections (enterocytes)” value in test [3] is “up regulation”; in test [3] (listed as fesitin), “upregulated”. For the same compound, the NO levels entry in test [4] is on record as “decrease”.

Source of the values: US20190314312A1, “COMBINATION THERAPY TO INCREASE ENDOGENOUS NITRIC OXIDE (NO) SYNTHESIS” (Yeda Research and Development Co. Ltd., priority 2016, published 2019).
